The results in this text go back to US20040082757A1, “Echinocandin derivatives, pharmaceutical compositions containing same and use thereof as drugs” (priority 2001, published 2004).

Numbered stars: 1 amine (or outer) side, 2 acyl side, 3 side chain; on linkers, the order of the positions; unused ones are H or OH. Bridge positions count the residues as written; N and C are the ends. Square brackets hold non-standard residues; d marks the D form. Peptide text beside a SMILES is read from it. * marks the point of attachment. ξ: configuration not given here. ξhTyr(βξ-OH,3-OSO3H) = NC(C(=O)O)C(O)Cc1ccc(O)c(OS(=O)(=O)O)c1; ξOrn(4,5-diOH) = O=C(C(CC(O)C(O)N[*:3])N[*:1])[*:2]; X3 = CCCCCOc1ccc(-c2cc(-c3ccc(C(=O)*)cc3)no2)cc1; ξOrn(4ξ-OH) = O=C(C(CC(O)CN[*:3])N[*:1])[*:2]; ξPro(3ξ-OH,4ξ-Me) = CC1CNC(C(=O)O)C1O; X2 = NC(=O)CC(O)C(N[*:1])C(=O)[*:2]; X1 = O=C(C1C(O)C(O)CN1[*:1])[*:2]; ξT = CC(O)C(N)C(=O)O A value given as a limit tells only on which side of the number the result lay.

One series deals with Candida albicans FP 633. In words: Antimicrobial activity test: antifungal susceptibility by microdilution method (NCCLS M27-A), MIC. Conditions: FP633, RPMI 1640, pH 7.0, 35° C., lowest concentration with no visible growth. In kind it is cell-based. As to the method: The antifungal susceptibility assays were performed by the microdilution method according to M27-A guidelines recommended by the National Committee for Clinical Laboratory Standards (NCCLS) to determine the MICs of the compounds. RPMI 1640 medium with L-glutamine, without sodium bicarbonate and buffered with 165 mM morpholinepropanesulfonic acid buffer (pH 7.0) was used as a test medium. Inoculum suspension of 10^6 CFU/ml were prepared by a hemocytometric procedure and diluted to obtain an inoculum size of approximately 0.5×10^3 to 2.5×10^3 CFU/ml. Microplates were incubated at 35° C., and readings were taken when good growth in the growth control. The MICs were defined as the lowest concentrations at which no visible growth was observed.
As a reminder, the MIC is the smallest concentration in the dilution series that meets the test's criterion for growth inhibition. A higher MIC goes with a less susceptible organism. In the case of `CCCCCOc1ccc(-c2cc(-c3ccc(C(=O)NC4CC(O)CNC(=O)C5C(O)C(C)CN5C(=O)C(C(O)CC(N)=O)NC(=O)C(C(O)Cc5ccc(O)c(OS(=O)(=O)[O-])c5)NC(=O)C5CCCN5C(=O)C(C(C)O)NC4=O)cc3)no2)cc1.[Na+]` (stereo not drawn) [Object Compound (8)] (X3-[ξOrn(4ξ-OH)]TP[ξhTyr(βξ-OH,3-OSO3H)][X2][ξPro(3ξ-OH,4ξ-Me)]; lactam 1-C; configuration not given here), the minimal inhibitory concentration (MIC) is less than 0.1 µg/mL.

Molecule `CCCCCOc1ccc(-c2cc(-c3ccc(C(=O)NC4CC(O)C(O)NC(=O)C5C(O)C(C)CN5C(=O)C(C(O)CC(N)=O)NC(=O)C(C(O)Cc5ccc(O)c(OS(=O)(=O)[O-])c5)NC(=O)C5C(O)C(O)CN5C(=O)C(C(C)O)NC4=O)cc3)no2)cc1.[Na+]` (stereo not drawn) [Object Compound (9)] returned a minimum inhibitory concentration (MIC) of less than 0.02 µg/mL.

As for `CCCCCOc1ccc(-c2cc(-c3ccc(C(=O)NC4CC(O)CNC(=O)C5C(O)C(C)CN5C(=O)C(C(O)CC(N)=O)NC(=O)C(C(O)Cc5ccc(O)c(OS(=O)(=O)[O-])c5)NC(=O)C5CCCN5C(=O)C(CO)NC4=O)cc3)no2)cc1.[Na+]` (stereo not drawn) [Object Compound (10)] (X3-[ξOrn(4ξ-OH)]SP[ξhTyr(βξ-OH,3-OSO3H)][X2][ξPro(3ξ-OH,4ξ-Me)]; lactam 1-C; configuration not given here), the MIC was less than 0.1 µg/mL.

System in the next series: not given
Test: not given
Conditions: not given
For orientation: melting point means the temperature of the solid-liquid transition. Regarding `CC(O)C1NC(=O)C(N)CC(O)CNC(=O)C2C(O)C(C)CN2C(=O)C(C(O)CC(N)=O)NC(=O)C(C(O)Cc2ccc(O)c(OS(=O)(=O)O)c2)NC(=O)C2CCCN2C1=O` (stereo not drawn) [Object Compound (1)] (H-[ξOrn(4ξ-OH)]TP[ξhTyr(βξ-OH,3-OSO3H)][X2][ξPro(3ξ-OH,4ξ-Me)]; lactam 1-C; configuration not given here), the melting point was 250 to 260 °C (dec.).

As to `CC(O)C1NC(=O)C(N)CC(O)C(O)NC(=O)C2C(O)C(C)CN2C(=O)C(C(O)CC(N)=O)NC(=O)C(C(O)Cc2ccc(O)c(OS(=O)(=O)O)c2)NC(=O)C2C(O)C(O)CN2C1=O` (stereo not drawn) [Object Compound (2)] (H-[ξOrn(4,5-diOH)][ξT][X1][ξhTyr(βξ-OH,3-OSO3H)][X2][ξPro(3ξ-OH,4ξ-Me)]; lactam 1-C), the melting point was 215 to 220 °C (dec.).

For `CC1CN2C(=O)C(C(O)CC(N)=O)NC(=O)C(C(O)Cc3ccc(O)c(OS(=O)(=O)O)c3)NC(=O)C3CCCN3C(=O)C(CO)NC(=O)C(N)CC(O)CNC(=O)C2C1O` (stereo not drawn) [Object Compound (3)] (H-[ξOrn(4ξ-OH)]SP[ξhTyr(βξ-OH,3-OSO3H)][X2][ξPro(3ξ-OH,4ξ-Me)]; lactam 1-C; configuration not given here), the melting point is 255 to 260 °C (dec.).
